Blank lines part the entries; values can stand above or below the molecule they belong to.
Target: T1, Human HPK1, catalytic domain (Homo sapiens, UniProt Q92918)
T1 sequence (Q92918 1-346): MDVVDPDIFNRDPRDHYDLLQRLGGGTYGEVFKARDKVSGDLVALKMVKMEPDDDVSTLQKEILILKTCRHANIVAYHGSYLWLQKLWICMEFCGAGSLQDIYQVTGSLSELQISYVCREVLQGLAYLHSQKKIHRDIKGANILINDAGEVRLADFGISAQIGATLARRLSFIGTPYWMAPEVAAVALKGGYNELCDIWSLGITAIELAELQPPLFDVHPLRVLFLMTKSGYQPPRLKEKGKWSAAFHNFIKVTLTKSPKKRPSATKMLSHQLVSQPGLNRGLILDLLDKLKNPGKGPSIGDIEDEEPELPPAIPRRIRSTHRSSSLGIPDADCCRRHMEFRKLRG
Assay: HPK1-SLP76 TR-FRET Assay
Format: biochemical
Settings: 75 pM HPK1, ATP 10 uM, SLP76 10 nM, 30 min pre-incubation, 60 min reaction

Structure (SMILES): COc1cc2c(cc1Nc1ncc3ccc(-c4ccc5c(c4)OCCO5)cc3n1)CNCC2 [Compound 1-70, 7-(2,3-dihydro-1,4-benzodioxan-6-yl)-N-(6-methoxy-1,2,3,4-tetrahydroisoquinolin-7-yl)quinazolin-2-amine]
- IC50: 140 nM

Structure (SMILES): COc1cc2c(cc1Nc1ncc3ccc(-c4cnn5c4CCC5)cc3n1)CNCC2 [Compound 1-35, 7-(5,6-dihydro-4H-pyrrolo[1,2-b]pyrazol-3-yl)-N-(6-methoxy-1,2,3,4-tetrahydroisoquinolin-7-yl)quinazolin-2-amine]
- IC50: 0.689 nM

Structure (SMILES): COc1cc2c(cc1Nc1ncc3ccc(-c4ccc(S(=O)(=O)N5CCCC5)cc4)cc3n1)CNCC2 [Compound 1-81, N-(6-methoxy-1,2,3,4-tetrahydroisoquinolin-7-yl)-7-{4-[(pyrrolidin-1-yl)sulfonyl]phenyl}quinazo-lin-2-amine]
- IC50: 192 nM

Structure (SMILES): Cc1c(-c2cc3nc(Nc4ccc(CC(N)=O)cc4)ncc3cc2F)cnc2c1NCCO2 [Compound 1-131, 2-(4-{[6-fluoro-7-(8-methyl-2,3-dihydro-1H-pyrido[2,3-b][1,4]oxazin-7-yl)quinazolin-2-yl]amino}phenyl)acetamide]
- IC50: 0.165 nM

Second part, the molecule after the results:

- IC50: 0.082 nM
Structure (SMILES): Cc1c(-c2cc3nc(Nc4cccc(S(C)(=O)=O)c4)ncc3c(N)c2F)cnc2c1NCCO2 [Compound 2-14, 6-fluoro-7-(8-methyl-2,3-dihydro-1H-pyrido[2,3-b][1,4]oxazin-7-yl)-N~2~- [3-(methylsulfonyl)phenyl] quinazoline-2,5-diamine]

- IC50: 1.32 nM
Structure (SMILES): Cc1c(-c2c(F)c(N)c3cnc(Nc4ccc(CS(C)(=O)=O)cc4)nc3c2Cl)cnc2c1NCCO2 [Compound 2-91, (+ or −)-8-chloro-6-fluoro-7-(8-methyl-2,3-dihydro-1H-pyrido[2,3-b][1,4]oxazin-7-yl)-N~2~- {4-[(methylsulfonyl)methyl]phenyl}quinazoline-2,5-diamine]

- IC50: 0.267 nM
Structure (SMILES): CN1Cc2cc(Nc3ncc4c(N)c(F)c(-c5cnc6c(c5)NCCO6)cc4n3)ccc2C2(CC2)C1 [Compound 2-151, 7-(2,3-dihydro-1H-pyrido[2,3-b][1,4]oxazin-7-yl)-6-fluoro-N~2~-(2′-methyl-2′,3′-dihydro-1′H-spiro[cyclopropane-1,4′-isoquinolin]-7′-yl)quinazoline-2,5-diamine]

- IC50: 0.0898 nM
Structure (SMILES): Cc1c(-c2cc3nc(Nc4ccc5c(c4)CC(C)(C)N(C)C5)ncc3c(N)c2F)cnc2c1NCCO2 (single isomer, unassigned) [Compound 2-126, 6-fluoro-7-(8-methyl-2,3-dihydro-1H-pyrido[2,3-b][1,4]oxazin-7-yl)-N2-(2,3,3-trimethyl-1,2,3,4-tetrahydroisoquinolin-6-yl)quinazoline-2,5-diamine]

- IC50: 204 nM
Structure (SMILES): COc1cc2c(cc1Nc1ncc3ccc(NCC4=NS(=O)(=O)c5cc(C)ccc5N4)cc3n1)CN(C)CC2 [Compound 3-18, 3-[({2-[(6-methoxy-2-methyl-1,2,3,4-tetrahydroisoquinolin-7-yl)amino]quinazolin-7-yl}-amino)methyl]-7-methyl-1lambda~6~,2,4-benzothia-diazine-1,1(4H)-dione]

- IC50: 15.2 nM
Structure (SMILES): COc1cc2c(cc1Nc1ncc3ccc(OCc4ccc(N5CCNCC5)nc4)cc3n1)CN(C)CC2 [Compound 4-1, N-(6-methoxy-2-methyl-1,2,3,4-tetrahydroisoquin-olin-7-yl)-7-{[6-(piperazin-1-yl)pyridin-3-yl]methoxy}-quinazolin-2-amine]

- IC50: 0.0134 nM
Structure (SMILES): Cc1c(-c2c(F)c(N)c3cnc(Nc4ccc5c(c4)CN(C)CC54CC4)nc3c2Cl)cnc2c1NCCO2 (single isomer, unassigned) [Compound 2-108, (+ or −)-8-chloro-6-fluoro-N2-(2′-methyl-2′,3′-dihydro-1′H-spiro[cyclopropane-1,4′-isoquinolin]-7′-yl)-7-(8-methyl-2,3-dihydro-1H-pyrido[2,3-b][1,4]oxazin-7-yl)quinazoline-2,5-diamine]

From US20230399341A1, “7-PHENYL SUBSTITUTED 2-AMINOQUINAZOLINE INHIBITORS OF HPK1” (MERCK SHARP & DOHME LLC, priority 2020, published 2023)
